Data reported in PubChem BioAssay (NCI).
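Dose response: 5 concentrations. Exposure: 48 h. Format: 96-well plates. Endpoint: linear interpolation; highest concentration if not reached. Abbreviation: GI50, concentration required for 50% inhibition of growth. TGI denotes the concentration required for complete inhibition of growth.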

Experiments:
Test in all cases: NCI-60 cell line screen, 48 h
A498 renal = tested on: A498 renal
BT-549 breast = tested on: BT-549 breast
DU-145 prostate = tested on: DU-145 prostate
HS 578T breast = tested on: HS 578T breast
KM12 colon = tested on: KM12 colon
NCI-H226 lung = tested on: NCI-H226 lung
SF-268 CNS = tested on: SF-268 CNS
SF-539 CNS = tested on: SF-539 CNS
SK-MEL-28 melanoma = tested on: SK-MEL-28 melanoma
SK-MEL-5 melanoma = tested on: SK-MEL-5 melanoma
SNB-75 CNS = tested on: SNB-75 CNS

## Clc1cc(Cl)cc(-c2ccc(-c3ccc(/C=N/NC4=NCCN4)cc3)s2)c1
A498 renal
  GI50: 1.39 µM
  TGI: 5.78 µM
BT-549 breast
  GI50: 9.24 µM
  TGI: 57.4 µM
DU-145 prostate
  GI50: 1.77 µM
  TGI: 3.2 µM
HS 578T breast
  GI50: 2.3 µM
  TGI: 6.41 µM
KM12 colon
  GI50: 1.71 µM
  TGI: 3.12 µM
NCI-H226 lung
  GI50: 4.16 µM
  TGI: > 100 µM
SF-268 CNS
  GI50: 1.98 µM
  TGI: 4.67 µM
SF-539 CNS
  GI50: 1.7 µM
  TGI: 3.07 µM
SK-MEL-28 melanoma
  GI50: 2.09 µM
  TGI: 4.69 µM
SK-MEL-5 melanoma
  GI50: 4.61 µM
  TGI: > 100 µM
SNB-75 CNS
  GI50: 1.78 µM
  TGI: 7.93 µM
